In test [1] the test system is reduced blood glutathione (GSH). Kind of test: Blood glutathione (GSH) levels in an ARMD patient before and after NAC treatment. The format is in vivo. The following applies: ARMD patient taking NAC compared to the same patient before taking NAC, FIG. 1. The text has this: FIG. 1 is a chart showing the decreased reduced blood glutathione (GSH) levels in an Age-Related Macular Degeneration patient, prior to and following treatment of the patient with N-acetylcysteine (NAC).
It is known that GSH levels decrease in cells that are exposed to oxidative stress and inflammation. Decreases in GSH lead to even further increased oxidative stresses. […] Since it shown that patients with ARMD, as opposed to the control subjects, have decreased levels of GSH and that the levels of GSH increased following NAC treatment, alterations in GSH, GSSG and other factors when analyzed alone or in combination, can be used to help identify ARMD and other patients who have increased ocular oxidative stress and/or inflammation. For example, these responses may occur in the eye of ARMD or other patients as the disease progresses from its dry to wet forms or from less serious to more serious wet forms. Consequently, measurements of these factors could provide a way of diagnosing and following the progression of ARMD or other conditions in patients, especially when the measurements are made sequentially and compared repeatedly in the same individual.
A second aspect of the invention is that the effectiveness of treatments that alter oxidative stress can be assessed by the measurement, especially sequential measurement, of blood factors. […]

Test [2] relates to drusen. The experiment in a line: Number of drusen in an ARMD patient following NAC treatment. The following applies: FIG. 2. The format is in vivo.

Take `CC(=O)N[C@@H](CS)C(=O)O` [NAC, N-acetylcysteine]: the GSH levels entry in test [1] is reported as “increased”. Also, the “drusen (number of drusens, a retinal abnormality)” value in test [2] is reported as “decreased”.

Values taken from patent US20030027745A1, “Diagnostic and prognostic method for evaluating ocular inflammation and oxidative stress and the treatment of the same” (priority 2001, published 2003).
